These are literature values, as cited in patent publication US4276288A, “Dehydrooligopeptides, their production and their medicinal use” (Troponwerke GmbH & Co., KG, priority 1976, dated 1981).

In this data set the test system is tumour cells.

Where two headings read alike, the source gives them in different places.

Regarding `O=P1(N(CCCl)CCCl)NCCCO1` (centres unmarked) [cyclophosphamide], the tumour cells destroyed is on record as 99.999% (LD10 dosage) and 90% (one eighth of the LD10 dose).
